In ChEMBL document CHEMBL6127044, “An insight into G-quadruplexes: Identification and potential therapeutic targets in livestock viruses” (Eur J Med Chem, 2024) one finds EC50 data, which are given here for 1 molecule.

This experiment relates to SARS-CoV-2. The experiment can be described thus: Antiviral activity against SARS-CoV-2 Wuhan 5-2N variant infected in African green monkey Vero E6 cells measured 3 days post infection by WST-8 assay. Format: functional, organism-based. The conditions noted are these: Severe acute respiratory syndrome coronavirus 2, Wuhan 5-2N, Vero C1008, 72 h.

As usually defined, the EC50 is the concentration at which the effect is half-maximal. Molecule `CCc1c(C)c2cc3nc(cc4nc(cc5c(CC)c(C)c(cc1[nH]2)n5C)C(C)=C4CCC(=O)O)C(CCC(=O)O)=C3C` registered an EC50 of 1.16 nM.
